Results published in US10660933B2, “Compositions and methods for inhibition of bacterial infections in human endocervix” (priority 2015, dated 2020).

Legend:
polarized T84 cells [1] = assay: Ng-induced exfoliation of polarized T84 monolayers (3D-CFM); format: cell-based, human; details: MS11ΔOpa, 6 h; inhibitor 1 h before and during; ML-7 10 μM, PIK 100 μM, Y27632 10 μM, 2APB 10 μM
Text: To quantify epithelial exfoliation, the number of Ng associated cells localized on the top of the epithelial monolayer (exfoliated) and the total number of Ng associated epithelial cells was counted by visual inspection in each randomly acquired image, to determine the percentage of exfoliated cells. To estimate the level of Ng penetration into the subepithelium, the number of non-exfoliated epithelial cells (in clearly visible epithelial monolayers) with basal Ng staining and the total number of Ng associated epithelial cells were visually counted to calculate the percentage of infected epithelial cells with Ng penetration into the basolateral side. To evaluate the disruption of the apical junction, the number of Ng associated epithelial cells that lost continuously apical staining of the junctional protein ZO1 and the total number of Ng associated epithelial cells were visually counted to calculate the percentage of Ng associated epithelial cells with apical junction disassembly. To quantify the redistribution of pMLC, the fluorescence intensity ratios (FIR) of pMLC staining at the apical to lateral in individual epithelial cells were determined using average FI as previously described.
(§1) Immunofluorescence analysis of polarized epithelial cells. Cells were pretreated with or without NMII kinase inhibitors, Y27632 (10 μM, EMD Millipore), ML-7 (10 μM, EMD Millipore) and PIK (100 μM) or Ca2+ inhibitors, 2APB (10 μM, EMD Millipore) and BAPTA (50 μM, EMD Millipore) for 1 h, and incubated with Ng in the presence or absence of the inhibitors for 6 h. Cell were washed and fixed with 4% paraformaldehyde, permeabilized with 1% Triton X100, and stained with anti-E-cadherin (BD Bioscience), anti-pMLC (Cell Signaling Technology, Carlsbad, Calif.), anti-Ng antibodies, and DAPI for nuclei. Cells were analyzed by CFM. Images were acquired as Z-series of 0.37 μm slices, and 3D composites obtained. Epithelial exfoliation will be quantified using xz images as described for the tissue explants. The distribution of E-cadherin and pMLC was quantitatively analyzed by measuring the FIR at the apical junctional to the cytoplasmic area (from xy images) or at the apical to lateral surface area (from xz images) in individual cells.

polarized T84 cells [2] = assay: Exfoliation of polarized T84 cells treated with inhibitors alone, without Ng; format: cell-based, human; details: no Ng inoculation, 6 h
Description: Polarized T84 cells were treated with inhibitors for 6 h, fixed, stained to visualize the cell nuclei, and imaged by 3D-CFM. The percentage of cell moving above the epithelial monolayer (dash lines) was determined from three independent experiments. Scale bar, 5 μm. *p≤0.05.
as §1

polarized T84 cells [3] = assay: Fence function of the apical junction (CellMask) in polarized T84 cells; format: cell-based, human; details: polarized T84, Ng-inoculated; ML-7 10 μM, 2APB 10 μM
Description: Ng-induced junctional disassembly leads to a significant increase in the lateral diffusion between the apical and basolateral membrane but not in the permeability of epithelial monolayers. To determine whether Opa, MLCK and Ca^2+ flux are involved in this functional alteration of the apical junction, we stained the basolateral surface of polarized T84 epithelial cells exclusively with CellMask dye for […], after apical incubation with fluorescently labeled Ng for 6 h. The appearance of basolaterally stained CellMask dye in the apical membrane indicates a decrease in the fence function of the apical junction (FIG. 4D). […] The percentage of cells with basolaterally labeled CellMask reaching the apical surface increased to 19.4% when MS11Opa+ was inoculated and to 62.2% when MS11ΔOpa was inoculated (FIGS. 4E and 4F).
Fence functional of the apical junction. Polarized T84 cells were incubated with Ng apically for 6 h. Then the cells were incubated with the CellMask dye (5 μg/ml, Life Technologies) in the basolateral chamber only for 15 min, and xz images were acquired using Leica TCS SP5X confocal microscope (Leica Microsystems, Buffalo Grove, Ill.). The number of epithelial cells displaying CellMask staining at the apical membrane was countered visually as the percentage of the total number of epithelial cells in each randomly acquired image.

[4] = test system: phosphorylated myosin light chain (pMLC); assay: pMLC (active NMII) redistribution in Ng-inoculated polarized T84 cells (3D-CFM); format: cell-based, human; details: for accumulation of pMLC at Ng adherent sites / apical:lateral FIR of pMLC: polarized T84, Ng 6 h; for junction:non-junction FIR of pMLC: polarized T84, Ng 6 h (Y27632: MS11ΔOpa); for junction:non-junction FIR of pMLC / apical:lateral FIR of pMLC: ML-7 10 μM, PIK 100 μM, Y27632 10 μM, 2APB 10 μM, BAPTA 50 μM
Description: Ng induce and Opa suppresses the redistribution of active non-muscle myosin II in polarized and endocervical epithelial cells. […] We examined the cellular distribution of active NMII after 6-h incubation with Ng, using antibody specific for phosphorylated myosin light chain (pMLC) and 3D-CFM. In uninfected polarized T84 (FIGS. 5A and 5C) and HEC-1-B cells (FIG. 10), pMLC was primarily localized at the apical junction. The polarized distribution of pMLC at the apical surface was quantified by the FIR of pMLC at the apical to the lateral (Apical:Lateral) membrane areas in individual cells using CFM images scanning across the apical and basolateral surfaces (FIGS. 5A and 5B). The polarized distribution pMLC at the apical junction was quantified by the FIR of pMLC at the junction to non-junction (Junction:Non-junction) areas of the apical region using CFM images scanning through the apical junction (FIGS. 5C and 5D). The apical inoculation of MS11Opa+ and MS11ΔOpa caused significant increases in apical:lateral FIR in both polarized T84 (FIGS. 5A and 5B) and HEC-1-B cells (FIG. 10), compared to the no Ng control. There were also significant increases in the junction:non-junction FIR in infected polarized T84 cells, compared to non-infected cells (FIGS. 5C and 5D). […] We further noticed that NMII at the apical surface appeared to accumulate at Ng adherent sites (FIG. 5A, middle panels, arrows).
as §1

[5] = test system: Neisseria gonorrhoeae MS11; assay: Ng adherence, invasion, and transmigration assays on polarized epithelial cells; format: cell-based; details: for transmigration of MS11ΔOpa across the polarized T84 monolayer / Ng invasion into polarized T84 cells (gentamicin resistance): 6 h; for transmigration of MS11ΔOpa across the polarized T84 monolayer: ML-7 10 μM, PIK 100 μM, 2APB 10 μM, Y27632 10 μM; for Ng adherence to polarized T84 cells / Ng invasion into polarized T84 cells (gentamicin resistance): MS11ΔOpa, with inhibitors; for Ng adherence to polarized T84 cells: 3 h
Description: Ng adherence, invasion, and transmigration assays. The assays were performed as previously described. Briefly, polarized epithelial cells that were pretreated with or without the inhibitors for 1 h were incubated apically with Ng at 37° C. for 3 h for adherence and 6 h for invasion and transmigration assays with or without the inhibitors. Ng in the basolateral media were cultured and counted as transmigrated bacteria. Cells were washed and lysed to count adherent Ng. Cells were treated with gentamicin, washed, and lysed to count bacteria that were resistant to gentamicin treatment as invaded Ng.

NCCOB(c1ccccc1)c1ccccc1 [2APB]
exfoliation of MS11ΔOpa-infected epithelial cells from T84 monolayers (polarized T84 cells [1]): reduced the exfoliation of polarized T84 cells to the level similar to ML-7 and PIK
epithelial exfoliation with inhibitors alone (polarized T84 cells [2]): did not affect epithelial exfoliation
percentage of epithelial cells with CellMask staining leaked to the apical surface (polarized T84 cells [3]): significantly lowered the percentage of epithelial cells with the CellMark staining leaked to the apical surface
accumulation of pMLC at Ng adherent sites [4]: decreased
junction:non-junction FIR of pMLC [4]: decreased
apical:lateral FIR of pMLC [4]: decreased
transmigration of MS11ΔOpa across the polarized T84 monolayer [5]: significantly reduced the transmigration
Ng adherence to polarized T84 cells [5]: none of these inhibitors had any significant effect
Ng invasion into polarized T84 cells (gentamicin resistance) [5]: none of these inhibitors had any significant effect

O=S(=O)(c1cccc2c(I)cccc12)N1CCCNCC1 [ML-7]
exfoliation of MS11ΔOpa-infected epithelial cells from T84 monolayers (polarized T84 cells [1]): reduced the exfoliation
epithelial exfoliation with inhibitors alone (polarized T84 cells [2]): did not affect epithelial exfoliation
percentage of epithelial cells with CellMask staining leaked to the apical surface (polarized T84 cells [3]): significantly lowered the percentage of epithelial cells with the CellMark staining leaked to the apical surface
accumulation of pMLC at Ng adherent sites [4]: significantly reduced
junction:non-junction FIR of pMLC [4]: significantly reduced
apical:lateral FIR of pMLC [4]: significantly reduced
transmigration of MS11ΔOpa across the polarized T84 monolayer [5]: significantly reduced the transmigration
Ng adherence to polarized T84 cells [5]: none of these inhibitors had any significant effect
Ng invasion into polarized T84 cells (gentamicin resistance) [5]: none of these inhibitors had any significant effect
